# Calls of active or inactive are those of the source. No cut-off for these calls is given here.
# Columns and labels:
# [1] = system: Lenvatinib-resistant HCC/Len; experiment: Antitumor activity against human Lenvatinib-resistant HCC/Len cells xenografted in BALB/c nude mouse model of PDX assessed as tumor growth inhibition at 1.5 mg/kg, ip cotreated with lenvatinib 5 times per week for 3 weeks; type: functional, organism-based
# [2] = biological target: N6-adenosine-methyltransferase catalytic subunit (Homo sapiens) (UniProt Q86U44); experiment: Inhibition of METTL3 in human Lenvatinib-resistant Huh7/Len cells assessed as effect on CRB3 mRNA expression level at 2 uM incubated for 72 hrs by RT-PCR analysis; type: cell-based
# Chain of N6-adenosine-methyltransferase catalytic subunit (Homo sapiens) (Q86U44 whole entry): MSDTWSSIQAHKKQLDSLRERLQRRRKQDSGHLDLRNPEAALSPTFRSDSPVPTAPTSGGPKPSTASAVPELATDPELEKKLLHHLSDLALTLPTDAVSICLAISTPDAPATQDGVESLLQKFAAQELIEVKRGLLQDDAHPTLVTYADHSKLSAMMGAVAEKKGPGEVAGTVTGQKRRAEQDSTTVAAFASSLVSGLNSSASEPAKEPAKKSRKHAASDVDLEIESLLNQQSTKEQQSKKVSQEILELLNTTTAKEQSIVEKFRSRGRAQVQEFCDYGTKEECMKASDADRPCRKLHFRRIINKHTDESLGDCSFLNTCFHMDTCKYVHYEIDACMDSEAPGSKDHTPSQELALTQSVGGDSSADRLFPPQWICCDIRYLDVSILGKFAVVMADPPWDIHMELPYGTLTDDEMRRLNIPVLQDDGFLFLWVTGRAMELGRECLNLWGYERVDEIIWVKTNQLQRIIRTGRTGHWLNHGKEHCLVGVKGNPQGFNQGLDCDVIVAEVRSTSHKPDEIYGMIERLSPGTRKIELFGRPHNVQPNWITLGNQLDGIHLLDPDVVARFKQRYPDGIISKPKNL
# [3] = biological target: N6-adenosine-methyltransferase catalytic subunit (Homo sapiens) (UniProt Q86U44); experiment: Inhibition of METTL3 in human Lenvatinib-resistant Huh7/Len cells assessed as effect on GATA3 mRNA expression level at 2 uM incubated for 72 hrs by RT-PCR analysis; type: cell-based
# [4] = system: Lenvatinib-resistant Huh7/Len; experiment: Anticancer activity against human Lenvatinib-resistant Huh7/Len cells assessed as increase in m6A modification in coding region by MeRIP-m6A -sequencing analysis; type: functional, cell-based
# [5] = system: Lenvatinib-resistant Hep3B/Len; experiment: Inhibition of cell migration in human Lenvatinib-resistant Hep3B/Len cells at 5 uM incubated for 48 hrs in presence of lenvatinib by transwell assay relative to control; type: functional
# [6] = system: Lenvatinib-resistant Huh7/Len; experiment: Antitumor activity against human Lenvatinib-resistant Huh7/Len cells xenografted in BALB/c nude mouse assessed as reduction in METTL3 protein expression at 1.5 mg/kg, ip 5 times per week for 3 weeks by Western blot assay; type: functional, organism-based
# [7] = biological target: N6-adenosine-methyltransferase catalytic subunit (Homo sapiens) (UniProt Q86U44); experiment: Inhibition of METTL3 in human Lenvatinib-resistant Huh7/Len cells assessed as effect on FGFR3 mRNA expression level at 2 uM incubated for 72 hrs by RT-PCR analysis; type: cell-based
# [8] = Toxicity in BALB/c nude mouse PDX model xenografted with human Lenvatinib-resistant HCC/Len cells assessed as changes in organ index at 1.5 mg/kg, ip administered 5 times per week for 3 weeks; type: organism-based; conditions: in vivo, 504 h
# [9] = biological target: N6-adenosine-methyltransferase catalytic subunit (Homo sapiens) (UniProt Q86U44); experiment: Inhibition of METTL3 in human Lenvatinib-resistant Huh7/Len cells assessed as effect on IFIT2 mRNA expression level at 2 uM incubated for 72 hrs by RT-PCR analysis; type: cell-based
# [10] = biological target: N6-adenosine-methyltransferase catalytic subunit (Homo sapiens) (UniProt Q86U44); experiment: Inhibition of METTL3 in human Huh-7 cells assessed as down regulation of m6A RNA level at 2 uM incubated for 72 hrs by colorimetric analysis; type: cell-based
# [11] = biological target: N6-adenosine-methyltransferase catalytic subunit (Homo sapiens) (UniProt Q86U44); experiment: Inhibition of METTL3 in human Lenvatinib-resistant Huh7/Len cells assessed as effect on DEK mRNA expression level at 2 uM incubated for 72 hrs by RT-PCR analysis; type: cell-based
# [12] = system: Lenvatinib-resistant Huh7/Len; experiment: Antitumor activity against human Lenvatinib-resistant Huh7/Len cells xenografted in BALB/c nude mouse assessed as inhibition of tumor volume at 1.5 mg/kg, ip cotreated with lenvatinib 5 times per week for 3 weeks relative to control; type: functional; conditions: 504 h
# [13] = system: Lenvatinib-resistant Hep3B/Len; experiment: Antiproliferative activity against human Lenvatinib-resistant Hep3B/Len cells assessed as inhibition of clone formation ability at 5 uM preincubated for 72 hrs and measured after 7 to 10 days by crystal violet staining based assay; type: functional, cell-based; conditions: time 10-13 day
# [14] = system: Lenvatinib-resistant Huh7/Len; experiment: Inhibition of cell migration in human Lenvatinib-resistant Huh7/Len cells at 5 uM incubated for 48 hrs in presence of lenvatinib by transwell assay relative to control; type: functional
# [15] = system: Lenvatinib-resistant Huh7/Len; experiment: Antiproliferative activity against human Lenvatinib-resistant Huh7/Len cells assessed as inhibition of cell viability at 5 uM uM after 72 hrs in presence of lenvatinib by CCK-8 assay; type: functional, cell-based
# [16] = biological target: N6-adenosine-methyltransferase catalytic subunit (Homo sapiens) (UniProt Q86U44); experiment: Inhibition of METTL3 in human Lenvatinib-resistant Huh7/Len cells assessed as effect on HNF4A mRNA expression level at 2 uM incubated for 72 hrs by RT-PCR analysis; type: cell-based
# [17] = Toxicity in BALB/c nude mouse xenografted with human Lenvatinib-resistant Huh7/Len cells assessed as changes in organ index at 1.5 mg/kg, ip administered 5 times per week for 3 weeks; type: organism-based; conditions: in vivo, 504 h
# [18] = system: Lenvatinib-resistant Huh7/Len; experiment: Antitumor activity against human Lenvatinib-resistant Huh7/Len cells xenografted in BALB/c nude mouse assessed as reduction in Ki-67 protein expression in tumor tissue at 1.5 mg/kg, ip cotreated with lenvatinib 5 times per week for 3 weeks by immunohistochemistry analysis relative to control; type: functional; design: scale not given: the % may be the effect or the level left
# [19] = system: Lenvatinib-resistant Huh7/Len; experiment: Antiproliferative activity against human Lenvatinib-resistant Huh7/Len cells assessed as inhibition of clone formation ability at 5 uM preincubated for 72 hrs and measured after 7 to 10 days in presence of lenvatinib by crystal violet staining based assay; type: functional, cell-based; conditions: time 10-13 day
# [20] = system: Huh-7; experiment: Effect on METTL3 protein expression in human Huh-7 cells at 2 uM incubated for 72 hrs by Western blot analysis; type: functional, cell-based
# [21] = Toxicity in BALB/c nude mouse xenografted with human Lenvatinib-resistant Huh7/Len cells assessed as changes in body weight at 1.5 mg/kg, ip administered 5 times per week for 3 weeks; type: organism-based; conditions: in vivo, 504 h
# [22] = biological target: N6-adenosine-methyltransferase catalytic subunit (Homo sapiens) (UniProt Q86U44); experiment: Inhibition of METTL3 in human Lenvatinib-resistant Huh7/Len cells assessed as effect on AKT1 mRNA expression level at 2 uM incubated for 72 hrs by RT-PCR analysis; type: cell-based
# [23] = Toxicity in BALB/c nude mouse PDX model xenografted with human Lenvatinib-resistant HCC/Len cells assessed as changes in organ index at 1.5 mg/kg, ip cotreated with lenvatinib 5 times per week for 3 weeks; type: organism-based; conditions: in vivo, 504 h
# [24] = biological target: N6-adenosine-methyltransferase catalytic subunit (Homo sapiens) (UniProt Q86U44); experiment: Inhibition of METTL3 in human Lenvatinib-resistant Huh7/Len cells assessed as effect on MMP13 mRNA expression level at 2 uM incubated for 72 hrs by RT-PCR analysis; type: cell-based
# [25] = system: Lenvatinib-resistant Hep3B/Len; experiment: Inhibition of cell migration in human Lenvatinib-resistant Hep3B/Len cells at 5 uM incubated for 48 hrs by transwell assay; type: functional, cell-based
# [26] = biological target: N6-adenosine-methyltransferase catalytic subunit (Homo sapiens) (UniProt Q86U44); experiment: Inhibition of METTL3 in human Lenvatinib-resistant Huh7/Len cells assessed as effect on SLC7A11 mRNA expression level at 2 uM incubated for 72 hrs by RT-PCR analysis; type: cell-based
# [27] = system: Lenvatinib-resistant Huh7/Len; experiment: Antiproliferative activity against human Lenvatinib-resistant Huh7/Len cells assessed as inhibition of cell viability up to 40 uM after 72 hrs by CCK-8 assay; type: functional, cell-based
# [28] = system: Lenvatinib-resistant Huh7/Len; experiment: Antiproliferative activity against human Lenvatinib-resistant Huh7/Len cells assessed as inhibition of clone formation ability at 5 uM preincubated for 72 hrs and measured after 7 to 10 days by crystal violet staining based assay; type: functional, cell-based; conditions: time 10-13 day
# [29] = system: Lenvatinib-resistant Huh7/Len; experiment: Anticancer activity against human Lenvatinib-resistant Huh7/Len cells assessed as increase in m6A modification in promoter region by MeRIP-m6A -sequencing analysis; type: functional, cell-based
# [30] = biological target: N6-adenosine-methyltransferase catalytic subunit (Homo sapiens) (UniProt Q86U44); experiment: Inhibition of METTL3 in human Lenvatinib-resistant Huh7/Len cells assessed as effect on ADAMTS9 mRNA expression level at 2 uM incubated for 72 hrs by RT-PCR analysis; type: cell-based
# [31] = biological target: N6-adenosine-methyltransferase catalytic subunit (Homo sapiens) (UniProt Q86U44); experiment: Inhibition of METTL3 in human Lenvatinib-resistant Huh7/Len cells assessed as effect on TET1 mRNA expression level at 2 uM incubated for 72 hrs by RT-PCR analysis; type: cell-based
# [32] = Toxicity in BALB/c nude mouse xenografted with human Lenvatinib-resistant Huh7/Len cells assessed as changes in body weight at 1.5 mg/kg, ip cotreated with lenvatinib 5 times per week for 3 weeks; type: organism-based; conditions: in vivo, 504 h
structure (smiles),measurement,setting,value
CN1[C@@H](CC(=O)c2ccccc2)CCC[C@H]1C[C@H](O)c1ccccc1 [LOBELINE],TGI,[1],Active
same,inhibition,[2],Active
same,inhibition,[3],Active
same,Activity,[4],Active
same,inhibition at 5 µM,[5],42%
same,Activity,[6],inactive
same,inhibition,[7],Active
same,Activity,[8],Non-Toxic
same,inhibition,[9],Active
same,inhibition,[10],11%
same,inhibition,[11],Active
same,inhibition in vivo at 1.5 mg/kg,[12],68%
same,inhibition,[13],inactive
same,inhibition at 5 µM,[14],42%
same,inhibition,[15],Active
same,inhibition,[16],Active
same,Activity,[17],Non-Toxic
same,Activity,[18],30%
same,inhibition,[19],inactive
same,Activity,[20],inactive
same,Activity,[21],Non-Toxic
same,inhibition,[22],Active
same,Activity,[23],Non-Toxic
same,inhibition,[24],Active
same,inhibition,[25],inactive
same,inhibition,[26],Active
same,inhibition,[27],Active
same,inhibition,[28],inactive
same,Activity,[29],Active
same,inhibition,[30],Active
same,inhibition,[31],Active
same,Activity,[32],Non-Toxic

# Reference: ChEMBL document CHEMBL5584314, “Identification of an m6A Natural Inhibitor, Lobeline, That Reverses Lenvatinib Resistance in Hepatocellular Tumors” (J Nat Prod, 2024)
